Data from patent publication US8222416B2, “Azaindole glucokinase activators” (Hoffmann-La Roche Inc., priority 2009, dated 2012).

Biological target: T1, Recombinant human liver GK1 (GST-GK) (Homo sapiens, UniProt P35557)
T1 construct: made in house; host or cells: E. coli
T1 sequence (P35557 1-466 isoform P35557-2): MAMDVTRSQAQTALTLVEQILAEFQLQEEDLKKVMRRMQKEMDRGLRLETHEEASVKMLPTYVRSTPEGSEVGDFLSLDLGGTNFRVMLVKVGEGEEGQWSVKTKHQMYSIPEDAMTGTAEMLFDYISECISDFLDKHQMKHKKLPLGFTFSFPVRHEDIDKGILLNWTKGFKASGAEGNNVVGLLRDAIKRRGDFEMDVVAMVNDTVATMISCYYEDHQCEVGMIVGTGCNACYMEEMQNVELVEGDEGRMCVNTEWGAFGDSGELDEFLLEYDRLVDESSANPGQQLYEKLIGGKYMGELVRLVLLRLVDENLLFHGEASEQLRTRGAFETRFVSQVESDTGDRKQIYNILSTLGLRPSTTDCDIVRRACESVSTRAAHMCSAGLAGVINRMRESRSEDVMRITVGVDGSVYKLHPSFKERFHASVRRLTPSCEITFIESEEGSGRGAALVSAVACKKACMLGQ
Assay: In vitro glucokinase activity assay (G6PDH-coupled, NADH, OD340)
Assay type: biochemical
Details: at 30 μM
Protocol: Glucokinase In Vitro Assay Protocol: Glucokinase (GK) was assayed by coupling the production of glucose-6-phosphate to the generation of NADH with glucose-6-phosphate dehydrogenase (G6PDH, 0.75-1 kunits/mg; Boehringer Mannheim, Indianapolis, Ind.) from Leuconostoc mesenteroides as the coupling enzyme (Scheme 2).
Recombinant human liver GK1 was expressed in E. coli as a glutathione S-transferase fusion protein (GST-GK) [Liang et al, 1995] and was purified by chromatography over a glutathione-Sepharose 4B affinity column using the procedure provided by the manufacturer (Amersham Pharmacia Biotech, Piscataway, N.J.).
The assay was conducted at 30° C. in a flat bottom 96-well tissue culture plate from Costar (Cambridge, Mass.) with a final incubation volume of 120 μL. The incubation reaction contained the following: 25 mM Hepes buffer (pH 7.1), 25 mM KCl, 5 mM D-glucose, 1 mM ATP, 1.8 mM NAD, 2 mM MgCl2, 1 μM sorbitol-6-phosphate, 1 mM dithiothreitol, test drug or 10% dimethylsulfoxide, ˜7 units/ml G6PDH, and GK (see below). All organic reagents were >98% pure and were from Boehringer Mannheim with the exceptions of D-glucose and Hepes which were from Sigma Chemical Co, St Louis, Mo. Test compounds were dissolved in dimethylsulfoxide and were added to the incubation reaction minus GST-GK in a volume of 12 μL to yield a final dimethylsulfoxide concentration of 10%. This mix was pre-incubated in the temperature controlled chamber of a SPECTRAmax 250 microplate spectrophotometer (Molecular Devices Corporation, Sunnyvale, Calif.) for 10 minutes to allow temperature equilibrium and then the reaction was started by the addition of 20 μL GST-GK.
After addition of enzyme, the increase in optical density (OD) at 340 nm was monitored spectrophotometrically to determine the rate of change (OD340 per min). The GK activity (OD340/min) in control wells (10% dimethylsulfoxide minus GK activators) was compared with the activity in wells containing test GK activators, and the concentration of activator that produced a 50% increase in the activity of GK, i.e., the SC1.5, was calculated.

SMILES | fold activation of GK [fold at 30]
CCC(O)(CC)c1ccc(C(CC2CCCC2)c2cc3cccnc3[nH]2)cc1 (centres unmarked) [Example 83, 3-{4-[2-Cyclopentyl-1-(1H-pyrrolo[2,3-b]pyridin-2-yl)-ethyl]-phenyl}-pentan-3-ol] | 1.4

Same assay, conditions: concentration of activator that produced a 50% increase in the activity of GK; 5 mM D-glucose, 30° C.

SMILES | SC1.5 [µM]
CS(=O)(=O)c1ccc(/C(=C\C2CCC2)c2cc3cc(F)cnc3[nH]2)cc1 [Example 46, 2-[(E)-2-Cyclobutyl-1-(4-methanesulfonyl-phenyl)-vinyl]-5-fluoro-1H-pyrrolo[2,3-b]pyridine] | 0.028
CS(=O)(=O)c1ccc(C(CC2CCC2)c2cc3cc(F)cnc3[nH]2)cc1 (centres unmarked) [Example 47, 2-[2-Cyclobutyl-1-(4-methanesulfonyl-phenyl)-ethyl]-5-fluoro-1H-pyrrolo[2,3-b]pyridine] | 0.415
CS(=O)(=O)c1ccc(C(O)(CC2CCCC2)c2cc3cc(F)cnc3[nH]2)cc1 (centres unmarked) [Example 48, 2-Cyclopentyl-1-(5-fluoro-1H-pyrrolo[2,3-b]pyridin-2-yl)-1-(4-methanesulfonyl-phenyl)-ethanol] | 0.654
N#Cc1ccc(C(CC2CCCC2)c2cc3cc(F)cnc3[nH]2)cc1 (centres unmarked) [Example 50, 4-[2-Cyclopentyl-1-(5-fluoro-1H-pyrrolo[2,3-b]pyridin-2-yl)-ethyl]-benzonitrile] | 0.603
CS(=O)(=O)c1ccc(C(CC2CCCC2)c2cc3cc(C#N)cnc3[nH]2)cc1 (centres unmarked) [Example 52, 2-[2-Cyclopentyl-1-(4-methanesulfonyl-phenyl)-ethyl]-1H-pyrrolo[2,3-b]pyridin-5-carbonitrile] | 0.37
COC(=O)c1cnc2[nH]c(C(CC3CCCC3)c3ccc(S(C)(=O)=O)cc3)cc2c1 (centres unmarked) [Example 54, 2-[2-Cyclopentyl-1-(4-methanesulfonyl-phenyl)-ethyl]-1H-pyrrolo[2,3-b]pyridin-5-carboxylic acid methyl ester] | 1.2
CC(C)(O)c1ccc(C(CC2CCCC2)c2cc3cc(C(=O)O)cnc3[nH]2)cc1F (centres unmarked) [Example 57, 2-{2-Cyclopentyl-1-[3-fluoro-4-(1-hydroxy-1-methyl-ethyl)-phenyl]-ethyl}-1H-pyrrolo[2,3-b]pyridin-5-carboxylic acid] | 22.3
CS(=O)(=O)c1ccc(C(CC2CCCC2)c2cc3cc(C(=O)NCCO)cnc3[nH]2)cn1 (centres unmarked) [Example 59, 2-[2-Cyclopentyl-1-(6-methanesulfonyl-pyridin-3-yl)-ethyl]-1H-pyrrolo[2,3-b]pyridin-5-carboxylic acid(2-hydroxy-ethyl)-amide] | 5.5
COc1ccc(C(CC2CCCC2)c2cc3cccnc3[nH]2)cn1 (centres unmarked) [Example 61] | 3.0
c1cnc2[nH]c(C(CC3CCCC3)c3ccc4c(c3)OCCO4)cc2c1 (centres unmarked) [Example 62, 2-[2-Cyclopentyl-1-(2,3-dihydro-benzo[1,4]-dioxin-6-yl)-ethyl]-1H-pyrrolo[2,3-b]pyridine] | 6.0
Cc1ccc(C(CC2CCCC2)c2cc3cccnc3[nH]2)cn1 (centres unmarked) [Example 63] | 3.5
CC(O)c1ccc(C(CC2CCCC2)c2cc3cccnc3[nH]2)cc1 (centres unmarked) [Example 64, 1-{4-[2-Cyclopentyl-1-(1H-pyrrolo[2,3-b]pyridin-2-yl)-ethyl]-phenyl}-ethanol] | 2.2
CN(C)c1ccc(C(CC2CCCC2)c2cc3cccnc3[nH]2)cc1 (centres unmarked) [Example 65, {4-[2-Cyclopentyl-1-(1H-pyrrolo[2,3-b]pyridin-2-yl)-ethyl]-phenyl}-dimethyl-amine] | 2.8
Cc1cc(C)cc(C(CC2CCCC2)c2cc3cccnc3[nH]2)c1 (centres unmarked) [Example 66, 2-[2-Cyclopentyl-1-(3.5-dimethyl-phenyl)-ethyl]-1H-pyrrolo[2,3-b]pyridine] | 4.2
FC(F)(F)c1ccc(C(CC2CCOCC2)c2cc3cccnc3[nH]2)cc1 (centres unmarked) [Example 68, 2-[2-(Tetrahydro-pyran-4-yl)-1-(4-trifluoromethyl-phenyl)-ethyl]-1H-pyrrolo[2,3-b]pyridine] | 0.888
CS(=O)(=O)c1ccc(/C(=C\C2CCCO2)c2cc3cccnc3[nH]2)cc1 (centres unmarked) [Example 70, (E)-2-[1-(4-Methanesulfonyl-phenyl)-2-(tetrahydro-furan-2-yl)-vinyl]-1H-pyrrolo[2,3-b]pyridine] | 0.082

SMILES | SC1.5 [µM]
CS(=O)(=O)c1ccc(C(CC2CCCO2)c2cc3cccnc3[nH]2)cc1 (centres unmarked) [Example 71, 2-[1-(4-Methanesulfonyl-phenyl)-2-(tetrahydro-furan-2-yl)-ethyl]-1H-pyrrolo[2,3-b]pyridine] | 2.3
COc1cnc2[nH]c(C(O)(CC3CCC3)c3ccc(S(C)(=O)=O)c(C(F)(F)F)c3)cc2c1 (centres unmarked) [Example 72, 2-Cyclobutyl-1-(4-methanesulfonyl-3-trifluoromethyl-phenyl)-1-(5-methoxy-1H-pyrrolo[2,3-b]pyridin-2-yl)-ethanol] | 13.3
CC(C)(C)/C=C(\c1ccc(S(C)(=O)=O)cc1)c1cc2cccnc2[nH]1 [Example 73, 2-[(E)-1-(4-Methanesulfonyl-phenyl)-3,3-dimethyl-but-1-enyl]-1H-pyrrolo[2,3-b]pyridine] | 0.653
CC(C)(C)CC(c1ccc(S(C)(=O)=O)cc1)c1cc2cccnc2[nH]1 (centres unmarked) [Example 74, 2-[1-(4-Methanesulfonyl-phenyl)-3,3-dimethyl-butyl]-1H-pyrrolo[2,3-b]pyridine] | 20.6
CS(=O)(=O)Nc1ccc(C(CC2CCCC2)c2cc3cccnc3[nH]2)cc1 (centres unmarked) [Example 75, N-{4-[2-Cyclopentyl-1-(1H-pyrrolo[2,3-b]pyridin-2-yl)-ethyl]-phenyl}-methanesulfonamide] | 2.5
CS(=O)(=O)c1ccc(C(O)(CC2CCC2)c2cc3cccnc3[nH]2)cc1C(F)(F)F (centres unmarked) [Example 76, 2-Cyclobutyl-1-(4-methanesulfonyl-3-trifluoromethyl-phenyl)-1-(1H-pyrrolo[2,3-b]pyridin-2-yl)-ethanol] | 14.9
CS(=O)(=O)c1ccc(C(CC2CCC2)c2cc3cccnc3[nH]2)cc1C(F)(F)F (centres unmarked) [Example 77, 2-[2-Cyclobutyl-1-(4-methanesulfonyl-3-trifluoromethyl-phenyl)-ethyl]-1H-pyrrolo[2,3-b]pyridine] | 0.692
CC(=O)c1ccc(C(CC2CCCC2)c2cc3cccnc3[nH]2)cc1 (centres unmarked) [Example 80, 1-{4-[2-Cyclopentyl-1-(1H-pyrrolo[2,3-b]pyridin-2-yl)-ethyl]-phenyl}-ethanone] | 2.6
CC(C)(O)c1ccc(C(CC2CCCC2)c2cc3cccnc3[nH]2)cc1 (centres unmarked) [Example 81, 2-{4-[2-Cyclopentyl-1-(1H-pyrrolo[2,3-b]pyridin-2-yl)-ethyl]-phenyl}-propan-2-ol] | 2.3
CC(C)C(C)(O)c1ccc(C(CC2CCCC2)c2cc3cccnc3[nH]2)cc1 (centres unmarked) [Example 85, 2-{4-[2-Cyclopentyl-1-(1H-pyrrolo[2,3-b]pyridin-2-yl)-ethyl]-phenyl}-3-methyl-butan-2-ol] | 23.6
O=S(=O)(CCO)c1ccc(C(CC2CCCC2)c2cc3cc(F)cnc3[nH]2)cc1 (centres unmarked) [Example 88, 2-{4-[2-Cyclopentyl-1-(5-fluoro-1H-pyrrolo[2,3-b]pyridin-2-yl)-ethyl]-benzenesulfonyl}-ethanol] | 0.178
O=S(=O)(CCO)c1ccc(C(CC2CCOCC2)c2cc3cc(F)cnc3[nH]2)cc1 (centres unmarked) [Example 89] | 2.5
CCOCCS(=O)(=O)c1ccc(C(CC2CCCC2)c2cc3cccnc3[nH]2)cc1 (centres unmarked) [Example 90, 2-{2-Cyclopentyl-1-[4-(2-ethoxy-ethanesulfonyl)-phenyl]-ethyl}-1H-pyrrolo[2,3-b]pyridine] | 0.73
O=S(=O)(CCO)c1ccc(C(CC2CCCC2)c2cc3cccnc3[nH]2)cc1 (centres unmarked) [Example 91] | 0.832
CN(C)CCS(=O)(=O)c1ccc(C(CC2CCCC2)c2cc3cccnc3[nH]2)cc1 (centres unmarked) [Example 92, (2-{4-[2-Cyclopentyl-1-(1H-pyrrolo[2,3-b]pyridin-2-yl)-ethyl]-benzenesulfonyl}-ethyl)-dimethyl-amine] | 1.1
